Test [1] has as its system VA13. In words: cells. It is filed as cell-based, human. The procedure:
(§1) The cytotoxicity of the substances under study was tested using the MTT (3-(4,5-dimethylthiazol-2-yl)-2,5-diphenyltetrazolium bromide) assay with some modifications. The detailed procedure for the MTT assay is given in the Supplementary Materials (Section S5).
(§2) Two thousand five hundred cells per well for the MCF7, HEK293T, and A549 cell lines or 4000 cells per well for the VA13 cell line were plated in 135 µL of DMEM-F12 media with 10% FBS (both Gibco, Waltham, MA, USA) in a 96-well plate and were incubated in a 5% CO2 incubator for the first 16 h, without treatment. Then 15 µL of media-DMSO solutions of the tested substances were added to the cells (the final DMSO concentrations in the media were 1% or less), and the cells were treated for 72 h with 25 nM–50 µM (eight dilutions) of the tested substances (triplicate each). Serial dilutions of DMSO and doxorubicin were used as controls. The MTT reagent (Paneco LLC, Moscow, Russia) was then added to the cells at a final concentration of 0.5 g/L (10× stock solution in PBS was used) and incubated for 2.5 h at 37 °C in the incubator under an atmosphere of 5%
(§3) CO2. The MTT solution was then discarded, and 140 µL of DMSO (PharmaMed LLC, Krasnodar, Russia) was added. The plates were swayed on a shaker (60 rpm) to dissolve the formazan. The absorbance was measured using the VICTOR X5 Multilabel Plate Reader (PerkinElmer, Wa l th a m, MA, USA) at a wavelength of 565 nm (in order to measure formazan concentration). The resu l ts were used to construct a dose-response graph and to estimate IC50 values.
(§4) Figure S11.The dependencies of viability of cells after treatment by tested compounds.
(§5) (1 picture or pasted object on this page, not shown here)

The test system of test [2] is HEK293T. As to the kind of experiment: cells. Type of test: cell-based, human. Particulars: 72 h. On the procedure:
as §1, §2, §3, §4, §5

Test [3] has as its system MCF7. In words: cells. Type of test: cell-based, human. The procedure:
as §1, §2, §3, §4, §5

For test [4], the system named is E. coli SQ171 ΔtolC (A2059G) and JW5503 (∆tolC) (KanS) ermC. As to the kind of experiment: Antibacterial activity on agar plates, macrolide-resistant strains. The note with it: Figure 3. It is filed as cell-based. On the procedure: Antibiotic activity was also evaluated against the following strains: E. coli JW5503 ΔtolC (KanS) ermC, modified with the plasmid pKH80 [59], providing resistance to erythromycin due to the expression of ErmC methyltransferase; E. coli SQ171 ΔtolC transformed with the pAM552 plasmid; E. coli SQ171 ΔtolC modified with the pAM552 plasmid with A2059G substitution in the 23S rRNA; E. coli JW1052 ΔmdtH; E. coli JW0912 ΔompF; and E. coli JW0368 ΔsbmA [57]. The procedure was performed as described previously in [33]. In short, Petri dishes filled with LB solid medium containing a selective antibiotic and 1.5% agar were covered with the tested strains. After that, 1 µL of 10 mM water solutions of Bac(1–10), Bac(1–10, R/Y), Bac(1–10, R/Y)-Cn-TPP, TPP-C10-Bac(1–10, R/Y), and Onc112, LEV (25 μg/mL) in water, and ERY (5 mg/mL and 50 mg/mL) in DMSO were applied onto the agar plates. After overnight incubation at 37 °C, the plates were scanned using the ChemiDoc^TM Imagining System (Bio-Rad Laboratories, Hercules, CA, USA) in three channels (Cy2, Cy3, and Cy5). The obtained images were processed in the Image Lab^TM software (Version 6.0.1, Bio-Rad).

Test [5] concerns 70S E. coli ribosome. In words: Competition-binding assay, displacement of BODIPY-Bac(1–10), fluorescence anisotropy. The note with it: read-out: apparent dissociation constant (KD). On the procedure:
70S ribosomes were isolated from E. coli MRE600 cells according to a published procedure. The binding of BODIPY-Bac(1–10) to 70S E. coli ribosomes was performed according to the following procedure. BODIPY-Bac(1–10) (16 nM) was incubated with ribosomes (from 0.5 nM to 2000 nM) for 2 h at 26 °C in a buffer containing 20 mM of HEPES-KOH (pH 7.5), 50 mM of NH4Cl, 10 mM of Mg(CH3COO)2, 4 mM of β-mercaptoethanol, and 0.05% Tween-20. The binding affinities of peptides 1 and 2, their TPP analogs 3–5, as well as the control compounds for the E. coli ribosome were analyzed via a competition-binding assay using fluorescently labeled BODIPY-Bac(1–10) or BODIPY-ERY, as described before in [38, 54]. The fluorescent compound (16 nM) was mixed with ribosomes (84 nM for BODIPY-Bac(1–10) and 46 nM for BODIPY-ERY) in the buffer. Solutions of the tested compounds were added to the obtained complexes to final concentrations ranging from 0.01 to 100 µM. The mixtures were incubated for 2 h at 26 °C, and then the values of fluorescence anisotropy were measured with a VICTOR X5 Multilabel Plate Reader (PerkinElmer, Waltham, MA, USA) using a 384-well plate. The excitation wavelength was 485 nm, and the emission wavelength was 535 nm. From the data obtained, apparent dissociation constants were calculated.

In test [6] the test system is E. coli JW5503 (∆tolC) (KanS) pDualrep2. In words: pDualrep2 double-reporter agar plate test. It is filed as cell-based. Particulars: 1 µL of 10 mM solution on agar plate. On the procedure: The “pDualrep2” system was used to evaluate the mechanism of the antimicrobial action of the synthesized compounds. This system is based on the hypersensitive strain E. coli JW5503 (∆tolC) (KanS) transformed with the “pDualrep2” plasmid, which allows one to sort out suppressors of protein synthesis or SOS response inducers. Briefly, 1 µL of 10 mM water solutions of Bac(1–10), Bac(1–10, R/Y), Bac(1–10, R/Y)-Cn-TPP, TPP-C10-Bac(1–10, R/Y), and Onc112 were applied onto the agar plate that already contained a layer of the reporter strain E. coli JW5503 (∆tolC) (KanS) pDualrep2, and then the plate was incubated overnight at 37 °C. The agar plate was scanned using the ChemiDoc^TM Imaging System (Bio-Rad Laboratories, Hercules, CA, USA), containing two channels, “Cy3-blot” (553/574 nm; green pseudocolor) for Turbo Red Fluorescent Protein (TurboRFP) detection and “Cy5-blot” (588/633 nm; red pseudocolor) for Katushka2S fluorescence. […] Levofloxacin (LEV; 50 μg/mL, 1 μL) and erythromycin (ERY; 5 mg/mL, 1 μL) were utilized as positive controls for DNA and protein synthesis inhibitors, respectively.

Setting [7] is: VA13, 72 h, MTT, read-out: IC50 (50% inhibition of viability of cells).
[8] abbreviates: HEK293T, MTT, read-out: IC50 (50% inhibition of viability of cells).
[9] abbreviates: MCF7, 72 h, MTT, read-out: IC50 (50% inhibition of viability of cells).

Read-outs that look alike come from different tables or passages of the source. Square brackets hold non-standard residues; d marks the D form. Peptide text beside a SMILES is read from it. * marks the point of attachment. X2 = c1ccc([P+](CCCCCCCCCCN*)(c2ccccc2)c2ccccc2)cc1; X1 = c1ccc([P+](CCN*)(c2ccccc2)c2ccccc2)cc1

As a reminder, the IC50 is the midpoint of a concentration-inhibition curve.

In the case of `CC[C@H](C)[C@H](NC(=O)[C@H](CCCNC(=N)N)NC(=O)[C@@H](N)CCCNC(=N)N)C(=O)N[C@@H](CCCNC(=N)N)C(=O)N1CCC[C@H]1C(=O)N[C@@H](CCCNC(=N)N)C(=O)N1CCC[C@H]1C(=O)N1CCC[C@H]1C(=O)N[C@@H](Cc1ccc(O)cc1)C(=O)N[C@@H](CC(C)C)C(=O)NCC[P+](c1ccccc1)(c1ccccc1)c1ccccc1` [Compound 3, Bac(1–10, R/Y)-C2-TPP] (H-RRIRPRPPYL-X1; N-terminus assumed), the IC50 in test [1] (setting [7]) was more than 50 µM; in test [2] (setting [8]) it was more than 50 µM; in test [3] (setting [9]) it was more than 20 µM. The “bacterial growth inhibition in macrolide-resistant E. coli strains” value (shortened to “bacterial growth inhibition”) in test [4] was “showed bacterial-growth-inhibiting activity”. Also, the Kd in test [5] (CI (α = 0.05)) stood at 260 ± 30 nM. Further, in test [6], the “inhibitory effect on growth of bacterial cells” value is “demonstrated an inhibitory effect on the growth of bacterial cells”. In addition, in test [6], the “reporter induction (Katushka2S red pseudocolor = protein synthesis inhibition)” value is reported as “red pseudocolor reporter induction was observed”.
On to `CC[C@H](C)[C@H](NC(=O)[C@H](CCCNC(=N)N)NC(=O)[C@@H](N)CCCNC(=N)N)C(=O)N[C@@H](CCCNC(=N)N)C(=O)N1CCC[C@H]1C(=O)N[C@@H](CCCNC(=N)N)C(=O)N1CCC[C@H]1C(=O)N1CCC[C@H]1C(=O)N[C@@H](Cc1ccc(O)cc1)C(=O)N[C@@H](CC(C)C)C(=O)NCCCCCCCCCC[P+](c1ccccc1)(c1ccccc1)c1ccccc1` [Compound 4, Bac(1–10, R/Y)-C10-TPP] (H-RRIRPRPPYL-X2; N-terminus assumed), for which the half-maximal inhibitory concentration (IC50) in test [1] (setting [7]) came out at 12 ± 1 µM; in test [2] (setting [8]) it was 3.1 ± 0.5 µM; in test [3] (setting [9]), 10 ± 1 µM. The “bacterial growth inhibition” value in test [4] is reported as “showed bacterial-growth-inhibiting activity”. Besides, in test [5] (CI (α = 0.05)), the Kd is 250 ± 40 nM. Further, the “inhibitory effect on growth of bacterial cells” value in test [6] is “demonstrated an inhibitory effect on the growth of bacterial cells”. In test [6], the “reporter induction (Katushka2S red pseudocolor = protein synthesis inhibition)” value is recorded as “red pseudocolor reporter induction was observed”.
With `CC[C@H](C)[C@H](NC(=O)[C@@H](CCCNC(=N)N)NC(=O)[C@H](CCCNC(=N)N)NC(=O)[C@@H]1CCCN1C(=O)[C@@H]1CCCN1C(=O)[C@H](CCCNC(=N)N)NC(=O)[C@@H]1CCCN1C(=O)[C@H](CCCNC(=N)N)NC(=O)[C@@H]1CCCN1C(=O)[C@H](CC(C)C)NC(=O)[C@H](Cc1ccc(O)cc1)NC(=O)[C@@H]1CCCN1C(=O)[C@@H]1CCCN1C(=O)[C@H](CCCCN)NC(=O)[C@H](CC(=O)O)NC(=O)[C@@H](N)C(C)C)C(=O)N[C@@H](Cc1ccc(O)cc1)C(=O)N[C@@H](CC(N)=O)C(=O)N[C@H](CCCNC(=N)N)C(N)=O` [Onc112, reference compound] (H-VDKPPYLPRPRPPR[dR]IYN[dR]-NH2; N-terminus assumed), the IC50 in test [1] (72 h) is more than 50 µM; in test [2], more than 50 µM; in test [3] (72 h), more than 20 µM. The “bacterial growth inhibition” value in test [4] is recorded as “showed activity against resistant E. coli bacteria comparable to that demonstrated in the wild type”. The Kd in test [5] (Figure S3B) amounted to 3 ± 1 nM. Moreover, in test [6], the “reporter induction (Katushka2S red pseudocolor = protein synthesis inhibition)” value was “red pseudocolor reporter induction was observed”.

(Values after PMC10818380, “Triphenylphosphonium Analogs of Short Peptide Related to Bactenecin 7 and Oncocin 112 as Antimicrobial Agents” (Pharmaceutics, 2024).)
